Reference: patent US20250354185A1, “BLUE PIGMENT AND BIOSYNTHESIS METHOD THEREOF” (VERTEXYN BIOWORKS CO., LTD., priority 2024, published 2025)

How the values were obtained:
Assay type in all cases: physicochemical
[1] = Comparison of colors of solutions in water (ddH2O); conditions: 1 mg dissolved with 10 mL of ddH2O; visual observation
Description: 1 mg of an indigoidine standard was weighed and dissolved with 10 mL of ddH2O to produce a solution of indigoidine in ddH2O. 1 mg of N-acetyl-indigoidine purified in Example 4 was weighed and dissolved with 10 mL of ddH2O to produce a solution of N-acetyl-indigoidine in ddH2O. A color difference between the solution of indigoidine in ddH2O and the solution of N-acetyl-indigoidine in ddH2O was observed, and results were shown in FIG. 17A and FIG. 17B. […] It can be seen that N-acetyl-indigoidine has a more authentic color than indigoidine.

[2] = Ultraviolet-visible absorption spectrum of HPLC product peaks; conditions: HPLC peaks of experimental group 5 (8.8 min indigoidine, 9.9 min N-acetyl-indigoidine)
Description: Wavelength: 600 nm. Flow rate: 1.0 mL/min. Sample solvent: DMSO. Injection volume: 10 μL. Column temperature: 35° C. Running time: 18 min.
Experimental group 5:50 mL of a fermentation broth of the strain HG-N-Idg01 cultured according to the method in Example 2 was collected and centrifuged to produce a cell pellet. The cell pellet was resuspended with 10 mL of a catalytic solution (including 1 g/L of glutaminc, 1 g/L of N-acetylglutamine, and 50 mM of a phosphate buffer), and a reaction was allowed at 25° C. and 220 rpm for 6 h. 100 μL of a sample was collected and tested by HPLC.
FIG. 2A and FIG. 2B show the wavelengths corresponding to the maximum absorption peaks of the experimental group 5.

[3] = Comparison of colors of solutions in DMSO; conditions: 1 mg dissolved with 10 mL of DMSO; visual observation
Description: 1 mg of an indigoidine standard was weighed and dissolved with 10 mL of DMSO to produce a solution of indigoidine in DMSO. 1 mg of N-acetyl-indigoidine purified in Example 4 was weighed and dissolved with 10 mL of DMSO to produce a solution of N-acetyl-indigoidine in DMSO. A color difference between the solution of indigoidine in DMSO and the solution of N-acetyl-indigoidine in DMSO was observed, and results were shown in FIG. 16A and FIG. 16B. […] The solution of N-acetyl-indigoidine in DMSO has a more vibrant and brighter color than the solution of indigoidine in DMSO.

Molecule | color of the solution in ddH2O [1] | wavelength corresponding to the maximum absorption peak [2] | color of the solution in DMSO [3]
CC(=O)NC1=C/C(=C2/C=C(N)C(=O)NC2=O)C(=O)NC1=O [N-acetyl-indigoidine] | blue | 584 nm | bright-blue
Indigoidine | purple-blue | 600 nm | blue
